In BindingDB's records for doi:10.1021/jm981129a (Julius-Maximilians University Würzburg, 1999):

Target: Nitric oxide synthase, brain (Sus scrofa)
Experiment: Inhibitory activity against Nitric oxide synthase (derived from porcine brain cerebellum)

Q: Which IC50 does the source give for Nc1nc(N)c2nc(COc3ccccc3)cnc2n1 [6-Phenoxymethyl-pteridine-2,4-diamine] here?
A: 180 µM
